From patent US4751215A, “Process for increasing the sexual activity of birds and useful domestic mammals and for preparing spermatozoa suitable to their propagation” (INNOFINANCE Altalanos Innovacios Penzintezet, priority 1985, dated 1988)

Assays:
Assay type in all cases: in vivo
male turkeys [1] = experiment: Effect of gonadoliberin analogues on the sperm production of male turkeys (Table 5)
Text: In a further experiment, the sperm production of male turkeys was raised by administering the following four compounds: […]

male turkey = experiment: Effect of interval between three intramuscular injections on sperm production of male turkey (Table 2); conditions: three i.m. injections, 1 μg/kg
Text: In Table 2, the influence on the sperm production of the interval kept between the consecutive treatments is shown on male turkeys.

[2] = tested on: blood plasma testosterone level; experiment: Effect of various doses on blood plasma testosterone level of domestic cock (Table 1)
Text: In Table 1, the relation of the doses of the compounds of general formula (I) to the blood plasma testosterone level of the treated animals is illustrated in case of domestic cocks.

bull = experiment: Enhancement of the sexual activity of a bull; conditions: 300 μg each, 3 times
Protocol: A 2-year old bull of 1010 kg weight, of breeding condition and correspondingly having a good muscular system, good leg construction and a definitely male sexual character was set to breeding in 1985. On October 16 and 23 as well as on Nov. 1, 1985 test coverings were carried out on a rutting female cattle and on a phantom bull. […] Diagnosis stated by the veterinarian specialist: importentia coeundi. The bull was treated on November 29 as well as on Dec. 2 and 4, 1986 altogether 3 times with 300 μg each of D-[…] -GnRH analogue. On Dec. […] 7, 1986. On Jan. 21, 1986 the bull sprung onto a cow being after rutting. The sexual potency of the animal was unobjectionable even after 5 weeks following the treatment.

testosterone level = experiment: Testosterone level of treated male turkeys (Table 3); conditions: Treated (n = 15)
Protocol: (§1) 0.5 μg/kg of D-Phe^6 -GnRH analogue was intramuscularly administered to sexually mature male turkeys every 2 days, altogether 3 times. On the 20th day following treatment, the sperm production reached an increase of 44% and remained at a higher level, as compared to the control, for about 1 month (FIG. 4).
(§2) One month and half after the first treatment, the same animals were similarly treated with 0.5 μg/kg of (Asp-α-diethylamide)^6,desGly^10 -GnRH ethylamide analogue every 2 days, altogether 3 times.
The rise of the LH level of the blood was followed by an increase in the testosterone level (Table 3).

male turkeys [3] = experiment: Permanent increase in sperm production of male turkeys bred on a large scale (Example 1, FIG. 4); conditions: 0.5 μg/kg i.m. every 2 days, 3 times
Protocol: as §1, §2

## CC(C)C[C@H](NC(=O)[C@@H](Cc1ccccc1)NC(=O)[C@H](Cc1ccc(O)cc1)NC(=O)[C@H](CO)NC(=O)[C@H](Cc1c[nH]c2ccccc12)NC(=O)[C@H](Cc1c[nH]cn1)NC(=O)[C@@H]1CCC(=O)N1)C(=O)N[C@@H](CCCNC(=N)N)C(=O)N1CCC[C@H]1C(=O)NCC(N)=O [Compound "A", D-Phe^6 -GnRH]
Male turkeys [1]; after 30 days
  Sperm production: 0.34 ml/animal
Male turkeys [1]; after 60 days
  Sperm production: 0.39 ml/animal
Male turkeys [1]; at the beginning of the experiment
  Sperm production: 0.27 ml/animal
Male turkey; interval between treatments 24 hour, on day 0
  Sperm volume: 0.18 (0.05) ml
Male turkey; interval between treatments 24 hour, on the 20th day
  Sperm volume: 0.21 (0.10) ml
Male turkey; interval between treatments 48 hour, on day 0
  Sperm volume: 0.19 (0.07) ml
Male turkey; interval between treatments 48 hour, on the 20th day
  Sperm volume: 0.35 (0.12) ml
Male turkey; interval between treatments 72 hour, on day 0
  Sperm volume: 0.16 (0.08) ml
Male turkey; interval between treatments 72 hour, on the 20th day
  Sperm volume: 0.25 (0.11) ml
Male turkey; interval between treatments 144 hour, on day 0
  Sperm volume: 0.21 (0.07) ml
Male turkey; interval between treatments 144 hour, on the 20th day
  Sperm volume: 0.24 (0.09) ml
[2]; dose 0.01 μg/kg, after 0 minutes
  Testosterone level of the blood plasma: 1.7 (0.7) ng/ml
[2]; dose 0.01 μg/kg, after 30 minutes
  Testosterone level of the blood plasma: 1.6 (1.3) ng/ml
[2]; dose 0.01 μg/kg, after 60 minutes
  Testosterone level of the blood plasma: 1.5 (1.0) ng/ml
[2]; dose 0.01 μg/kg, after 120 minutes
  Testosterone level of the blood plasma: 1.4 (0.6) ng/ml
[2]; dose 0.05 μg/kg, after 0 minutes
  Testosterone level of the blood plasma: 1.4 (0.7) ng/ml
[2]; dose 0.05 μg/kg, after 30 minutes
  Testosterone level of the blood plasma: 1.7 (1.2) ng/ml
[2]; dose 0.05 μg/kg, after 60 minutes
  Testosterone level of the blood plasma: 1.5 (1.2) ng/ml
[2]; dose 0.05 μg/kg, after 120 minutes
  Testosterone level of the blood plasma: 1.9 (0.8) ng/ml
[2]; dose 0.1 μg/kg, after 0 minutes
  Testosterone level of the blood plasma: 1.0 (0.2) ng/ml
[2]; dose 0.1 μg/kg, after 30 minutes
  Testosterone level of the blood plasma: 3.4 (1.9) ng/ml
[2]; dose 0.1 μg/kg, after 60 minutes
  Testosterone level of the blood plasma: 2.7 (1.1) ng/ml
[2]; dose 0.1 μg/kg, after 120 minutes
  Testosterone level of the blood plasma: 2.0 (0.8) ng/ml
[2]; dose 0.3 μg/kg, after 0 minutes
  Testosterone level of the blood plasma: 2.1 (0.7) ng/ml
[2]; dose 0.3 μg/kg, after 30 minutes
  Testosterone level of the blood plasma: 3.9 (0.6) ng/ml
[2]; dose 0.3 μg/kg, after 60 minutes
  Testosterone level of the blood plasma: 4.2 (1.2) ng/ml
[2]; dose 0.3 μg/kg, after 120 minutes
  Testosterone level of the blood plasma: 2.6 (0.5) ng/ml
[2]; dose 0.5 μg/kg, after 0 minutes
  Testosterone level of the blood plasma: 2.5 (1.0) ng/ml
[2]; dose 0.5 μg/kg, after 30 minutes
  Testosterone level of the blood plasma: 6.5 (0.5) ng/ml
[2]; dose 0.5 μg/kg, after 60 minutes
  Testosterone level of the blood plasma: 5.3 (1.2) ng/ml
[2]; dose 0.5 μg/kg, after 120 minutes
  Testosterone level of the blood plasma: 3.9 (1.5) ng/ml
[2]; dose 1.0 μg/kg, after 0 minutes
  Testosterone level of the blood plasma: 1.5 (0.8) ng/ml
[2]; dose 1.0 μg/kg, after 30 minutes
  Testosterone level of the blood plasma: 7.2 (3.5) ng/ml
[2]; dose 1.0 μg/kg, after 60 minutes
  Testosterone level of the blood plasma: 7.1 (3.6) ng/ml
[2]; dose 1.0 μg/kg, after 120 minutes
  Testosterone level of the blood plasma: 3.7 (1.2) ng/ml
[2]; dose 3.0 μg/kg, after 0 minutes
  Testosterone level of the blood plasma: 1.9 (0.3) ng/ml
[2]; dose 3.0 μg/kg, after 30 minutes
  Testosterone level of the blood plasma: 6.2 (2.4) ng/ml
[2]; dose 3.0 μg/kg, after 60 minutes
  Testosterone level of the blood plasma: 5.2 (1.7) ng/ml
[2]; dose 3.0 μg/kg, after 120 minutes
  Testosterone level of the blood plasma: 3.0 (1.1) ng/ml
[2]; dose 5.0 μg/kg, after 0 minutes
  Testosterone level of the blood plasma: 2.1 (1.2) ng/ml
[2]; dose 5.0 μg/kg, after 30 minutes
  Testosterone level of the blood plasma: 3.6 (2.4) ng/ml
[2]; dose 5.0 μg/kg, after 60 minutes
  Testosterone level of the blood plasma: 2.7 (0.6) ng/ml
[2]; dose 5.0 μg/kg, after 120 minutes
  Testosterone level of the blood plasma: 1.7 (0.9) ng/ml
bull; 5 weeks following the treatment
  sexual potency of the animal: unobjectionable
bull; bull with impotentia coeundi, Dec. 6, 1985
  covering behaviour after treatment: covered two times a rutting cow
Testosterone level; sampling May 2
  Testosterone: 2.43 ± 1.22 ng/mL
Testosterone level; sampling May 23
  Testosterone: 4.06 ± 1.62 ng/mL
Male turkeys [3]
  time sperm production remained at a higher level as compared to the control: about 1 month
Male turkeys [3]; on the 20th day following treatment
  increase of sperm production: 44%
